Measurements published in US20240341340A1, “EYE DAMAGE PREVENTION COMPOSITION CONTAINING DENDROPANAX MORBIFERA LEV. EXTRACT” (KOREA GINSENG CORP., priority 2021, published 2024).

What was measured:
Assay type in all cases: in vivo, mouse
[1] = tested on: BALB/c mice, white LED light-induced loss of optic nerve cells; experiment: Electroretinogram (wave a and wave b) in light-induced macular degeneration animal model; conditions: 6.5 mg/kg/day oral
Text: An electroretinogram (ERG) is a degree of electric potential of the retinal optic nerve representing an electrical signal generated by a response of the optic nerve to light, and is used as an index to determine the presence/absence of retinal damage or disease. The electroretinogram consists of wave a and wave b, in which the wave a is generated by photoreceptors, and the wave b is generated by depolarization of bipolar cells in the inner nuclear layer of the retina by light stimulation. In order to confirm whether a Dendropanax morbifera extract has the effect of improving the decrease of activity of visual cells in an animal model in which optic nerve cell damage was caused by the irradiation of an excessive light source and loss of optic nerve cells similar to dry macular degeneration was induced, the electroretinogram was measured. […] An appropriate amount of 1% methylcellulose was added to the eyeballs while maintaining body temperature under general anesthesia, and the gold wire loops recording electrode was grounded to the cornea, and the reference electrode was placed on the cheek area, and the ground electrode was grounded to the tail, and then the electroretinogram was measured using Retiport (Roland Consult, Germany). […]

[2] = tested on: BALB/c mice, MNU-induced loss of optic nerve cells; experiment: Outer nuclear layer thickness in N-methyl-N-nitrosourea (MNU) animal model; conditions: 6.5 and 13 mg/kg/day oral for 7 days
Method: In order to confirm the effect of the Dendropanax morbifera extract on improving damage or deformation of photoreceptor cells, N-methyl-N-nitrosourea (MNU) toxic to photoreceptor cells was administered, and the changes in thickness of the outer nuclear layer (ONL) of the retina were measured in an animal model where loss of optic nerve cells similar to dry macular degeneration was induced. Specifically, 6-week-old male BALB/c mice (Orient Bio Inc.) were acclimatized for one week, and N-methyl-N-nitrosourea (MNU) (Sigma, USA) was prepared to a concentration of 1% in a 0.05% acetic acid solution and was administered intraperitoneally to mice at a concentration of 1%, 60 mg/kg per individual, in which only the same amount of 0.05% acetic acid was administered intraperitoneally in the negative control. The test drug was orally administered once daily for 7 days from the same day after administration of N-methyl-N-nitrosourea. […] The slide sections were stained with hematoxylin & eosin (H&E) and observed under an optical microscope, and damage or deformation of photoreceptor cells was evaluated by measuring changes in the thickness of the outer nuclear layer of retinal tissue.

[3] = tested on: BALB/c mice, white LED light-induced loss of optic nerve cells; experiment: Outer nuclear layer thickness in light-induced macular degeneration animal model; conditions: 6.5 mg/kg/day oral for 7 days
Text: When drusen accumulates in the macular area due to dry macular degeneration, the macular area is photooxidized and causes damage to surrounding tissues and optic nerve cells, thereby resulting in a decrease of visual acuity, and in severe cases, geographic atrophy occurs, a condition in which optic nerve cells are lost and retinal apoptosis is induced. In order to determine whether a Dendropanax morbifera extract has the effect of improving damage or deformation of photoreceptor cells in an animal model where optic nerve cell damage was caused by excessive irradiation of a light source including blue light and loss of optic nerve cells similar to dry macular degeneration, the changes in the thickness of outer nuclear layer (ONL) of the retina were measured. Specifically, 6-week-old male BALB/c mice (Orient Bio Inc.) were acclimatized for one week and then subjected to dark adaptation in a dark place without light for 14 hours from the evening before white LED exposure containing blue light, and then, their pupils were dilated with 1% tropicamide eye drop the next morning. […] The slide sections were stained with hematoxylin & eosin (H&E) and observed under an optical microscope, and damage or deformation of photoreceptor cells was evaluated by measuring changes in the thickness of the outer nuclear layer of retinal tissue

O=C(/C=C/c1ccc(O)c(O)c1)O[C@@H]1C[C@@](O)(C(=O)O)C[C@@H](O)[C@@H]1O [neochlorogenic acid, Neochlorogenic acid]
not statistically significant: improvement of retinal nerve conduction (positive control) [1] | increase of thickness of the outer nuclear layer (positive control) [2] | increase of thickness of the outer nuclear layer (positive control) [3]
